From US20110008802A1, “TNFalpha GENE EXPRESSION AS A BIOMARKER OF SENSITIVITY TO ANTAGONISTS OF INHIBITOR OF APOPTOSIS PROTEINS” (TETRALOGIC PHARMACEUTICALS CORP., priority 2007, published 2011)

Assays:
SKOV3 cells = assay: MTT assay of compound C with or without TNFα blocking antibody, SKOV3 cells; format: cell-based, human; settings: compound C+anti-TNFα antibody (MAB610) vs compound C alone, 72 hrs
Protocol: (§1) We have previously observed that our compounds promote rapid cIAP-1 degradation. Therefore, we hypothesized that degradation of cIAP-1 may result in autocrine activation of the death-receptor pathway by TNFα. To test this, we used TNFα blocking antibody in an MTT assay. Briefly, indicated ovarian cancer cell lines were seeded into 96-well cell culture plates at a density of 5,000 cells per well. The next day, anti-TNFα antibody (MAB610, R&D Systems, Minneapolis, Minn.) was added to cells at a final concentration of 10 µg/mL and allowed to incubate for 1 hr at 37° C., 5% CO2. Following incubation, a range of concentrations of the cIAP antagonist compound C was added to cells. Cells were incubated in the presence of compound C+anti-TNFα antibody or in the presence of compound C alone as a control for an additional 72 hrs. Following 72 hr incubation, MTT reagent (3-(4,5-dimethylthiazolyl-2)-2,5-diphenyltetrazolium bromide; SIGMA, St. Louis, Mo.) was added to all wells at a final concentration of 1 mg/mL and allowed to incubate for 2 hrs at 37° C., 5% CO2. Following a 2 hr incubation, all media was removed from wells and […] DMSO was added to solubilize formazan crystals. After a brief incubation at room temp on a microplate shaker, absorbance was measured at 570 nm using a Victor^2V fluorescent microplate reader (Perkin-Elmer, Turku, Finland). […]

OVCAR-8 cells = assay: MTT assay of compound C with or without TNFα blocking antibody, OVCAR-8 cells; format: cell-based, human; settings: compound C+anti-TNFα antibody (MAB610) vs compound C alone, 72 hrs
Protocol: as §1

## CN[C@@H](C)C(=O)N[C@H](C(=O)N1C[C@@H](O)C[C@H]1CC1=C(C2=C(C[C@@H]3C[C@H](O)CN3C(=O)[C@@H](NC(=O)[C@H](C)NC)[C@@H](C)OC)c3ccc(F)cc3C2)Cc2cc(F)ccc21)[C@@H](C)OC [compound C]
SKOV3 cells
  effect of anti-TNFα antibody on cIAP antagonist induced cytotoxicity (CC50 curve, FIG. 2): abrogates cIAP antagonist induced cytotoxicity
OVCAR-8 cells
  effect of anti-TNFα antibody on cIAP antagonist induced cytotoxicity (CC50 curve, FIG. 1): abrogates cIAP antagonist induced cytotoxicity
